One assay deals with NQO1. The experiment in a line: NQO1 assay in Hepa1c1c7 cells. The assay is classed as cell-based, mouse. To be noted: approx. 48 hours, mean of 3 wells. The method, then: Hepa1c1c7 cells (mouse hepatic cell line, ATCC, catalog No. CRL-2026) were cultured (5% CO2, 37° C.). A DMEM (Life Technologies Japan Ltd., catalog No. 11965-092) medium also containing 10% inactivated FBS was used. The medium contained 100 units/mL (final concentration) penicillin and 100 μg/[…] (final concentration) streptomycin. The NQO1 assay was conducted according to previous reports (Anal Biochem 1998; 169: 328-; and Methods Enzymol 2004; 382: 243-).
The Hepa1c1c7 cells were seeded at 10000 cells/well in a 96-well plate. The amount of the medium was 100 μL. Approximately 24 hours later, the medium was replaced with a medium containing CDDO-Me or each of terpenoid derivatives A to G, followed by further culture for approximately 48 hours. A lysis solution (a solution containing 2 mM EDTA and 0.8% digitonin), a reaction solution (a solution containing 0.025 M of tris-HCl, 0.067% of albumin, 0.01% of Tween-20, 2 U/mL of glucose-6-phosphate dehydrogenase, 5 μM of flavin adenine dinucleotide, 1 […], 30 μM of nicotinamide adenine dinucleotide phosphate, 0.03% of 3-(4,5-dimethyl-2-thiazolyl)-2,5-diphenyltetrazolium bromide (MTT), and 50 μM of menadione), and a stop solution (a solution containing 0.3 mM dicumarol and 5 mM potassium dihydrogen phosphate, pH 7.4) were prepared. After removal of the medium, 50 μL of the lysis solution was added thereto, and the mixture was left standing at 37° C. for 10 minutes. The reaction mixture was further shaken at room temperature for 10 minutes.
Two hundred μL of the solution was added thereto, and the mixture was left standing at room temperature for 5 minutes. Fifty μL of the stop solution was added thereto, and the absorbance at 490 nm was measured.
The test results were analyzed using Prism (GraphPad Software, Inc., Ver. 5) to calculate the CD value of the concentration at which the activity of NQO1 was increased 2-fold. Each group consisted of 3 wells and indicated as a mean of CD values.

The test system of another assay is Nqo1 gene. As to the kind of experiment: Effect of inducing Nrf2 target gene (in vivo): Nqo1 gene expression in mouse kidney after oral administration. Also on record: species or system C57 Black 6 mouse. To be noted: for Nqo1 gene expression level: solvent group defined as 1, mean ± SD, 6 mice; for induction of the Nqo1 gene (in words): oral, derivative B at a dose of 1 mg/kg. The method, then:
The Nqo1 gene was used as the Nrf2 target gene.
Respective suspensions of terpenoid derivative B of the present invention obtained in Example 1 and CDDO-Me were prepared using 0.5 w/v % methylcellulose solution 400 cP (Wako Pure Chemical Industries, Ltd., catalog No. 133-14255) as a solvent. Each suspension was orally administered once a day for 12 consecutive days at a dose of 1, 3, or 10 mg/kg with administration volume of 10 mL/kg to each C57 Black 6 mouse (Charles River Laboratories Japan, Inc., male, 8 weeks old at the time of receipt, 10 weeks old at the start of the experiment). On the next day of the final administration, the mouse was euthanized, and the kidney was sampled. From the sampled kidney, mRNA was collected using an extraction kit (manufactured by Qiagen N.V., RNeasy Mini Kit, catalog No. 74106). From the obtained mRNA, cDNA was prepared using a cDNA synthesis kit (manufactured by GE Healthcare Life Sciences, First-Strand cDNA Synthesis Kit). The obtained cDNA was amplified using a reagent (manufactured by Applied Biosystems, Inc., TaqMan(R) Gene Expression Master Mix (catalog No. 4369016)) and a probe, and subjected to real-time quantitative PCR (Real-time PCR HT7900 manufactured by Applied Biosystems, Inc. was used). […] Each group consisted of 6 mice and was indicated as a mean and standard deviation.

Assay [1] concerns oxygen-induced retinopathy in rat. The experiment in a line: Inhibitory effect on oxygen-induced retinopathy in rat (in vivo). Also on record: species or system SD rat. Conditions: for Score of pathological condition of retina: rat newborns, oxygen load present, seven times, mean ± SD. The procedure:
SD rat newborns (Charles River Laboratories Japan, Inc., pregnant rats were received) were used in the experiment. From the ages of 1 day to 12 days, the newborns were raised under approximately 80% oxygen with the mother rats. The newborns were raised under the atmosphere from the age of 13 days. A suspension of the terpenoid derivative B was prepared using a 0.5 w/v % methylcellulose solution 400 cP (Wako Pure Chemical Industries, Ltd., catalog No. 133-14255) as a solvent. The suspension was orally administered once a day from the ages of 11 days to 17 days, a total of seven times, at a dose of 0.03, 0.1, or 0.3 mpk with administration volume of 10 mL/kg. On the next day of the final […], the newborn rats were euthanized, and the retina was sampled. The pathological condition of the retina was scored according to the literature (Invest Ophthalmol Vis Sci 2000; 41: 887-). Each group consisted of 14 to 30 eyes and was indicated as a mean and standard deviation.

The mark [2] stands for this setting: 1 mg/kg oral once a day for 12 days.
Setting [3] is: 3 mg/kg oral once a day for 12 days.
[4] abbreviates: 10 mg/kg oral once a day for 12 days.

Regarding `COC(=O)[C@]12CCC(C)(C)C[C@H]1[C@H]1C(=O)C=C3[C@@]4(C)C=C(C#N)C(=O)C(C)(C)[C@@H]4CC[C@@]3(C)[C@]1(C)CC2` [CDDO-Me, methyl 2-cyano-3,12-dioxooleana-1,9-dien-28-oate, reference compound], the “CD value (concentration at which the activity of NQO1 was increased 2-fold)” value in the assay on NQO1 is recorded as 1.0 nM. For the same compound, the “Nqo1 gene expression level” value in the assay on Nqo1 gene (setting [2]) is recorded as 1.0 ± 0.0; in the assay with Nqo1 gene (setting [3]) it was 1.0 ± 0.1; in the assay with Nqo1 gene (setting [4]), 1.0 ± 0.1. For the same compound, the “induction of the Nqo1 gene (in words)” value in the assay with Nqo1 gene is reported as “not confirmed to induce the Nqo1 gene”.

As for `COC(=O)[C@@]12CC[C@]3(C)[C@H](C(=O)C=C4[C@@]5(C)[C@H]6O[C@@]6(C#N)C(=O)C(C)(C)[C@@H]5CC[C@]43C)[C@@H]1CC(C)(C)[C@@H](O)C2` [terpenoid derivative B], in the assay on NQO1, the “CD value (concentration at which the activity of NQO1 was increased 2-fold)” value stood at 0.3 nM. In addition, the entries for the “Nqo1 gene expression level” value with Nqo1 gene (setting [2]), in the assay on Nqo1 gene (setting [3]) and with Nqo1 gene (setting [4]) were 1.2 ± 0.1, 1.8 ± 0.2 and 2.3 ± 0.2, respectively. The “induction of the Nqo1 gene (in words)” value in the assay with Nqo1 gene is on record as “confirmed to induce the Nqo1 gene”. Further, the “Score of pathological condition of retina” value in assay [1] (0.03 mg/kg oral once a day) was found to be 3.93 ± 0.79; in assay [1] (0.1 mg/kg oral once a day), 3.54 ± 0.48; in assay [1] (0.3 mg/kg oral once a day), 2.57 ± 0.35. Moreover, the “effect on score of the pathological condition of the retina (in words)” value in assay [1] (rat oxygen-induced retinopathy, oral 0.03 to 0.3 mg/kg) is on record as “suppressed the score of the pathological condition of the retina in a dose-dependent manner”.

The values above are taken from patent US10253060B2, “Terpenoid derivatives” (Daiichi Sankyo Company, Limited, priority 2013, dated 2019).
